Experimental data reported in ChEMBL document CHEMBL1201862, “PubChem BioAssay data set” (2004).
Calls of active or inactive are those of the source.

Tests used:
[1] = biological target: T1, Beta-adrenergic receptor kinase 1 (Homo sapiens, UniProt P25098); assay: GRK2 inhibitors displacing RNA aptamer, dose response, biochemical, flow cytometry beads, FAM-aptamer, powder set 1 (AID 588720)
[2] = biological target: T1, Beta-adrenergic receptor kinase 1; assay: aptamer displacement from bead-bound GRK2 – biochemical, cherry pick 1, bead flow cytometry, dose response (AID 504500)
[3] = biological target: T2, Histone-lysine N-methyltransferase NSD2 (Homo sapiens, UniProt O96028); assay type: biochemical
T2 sequence (O96028 whole entry): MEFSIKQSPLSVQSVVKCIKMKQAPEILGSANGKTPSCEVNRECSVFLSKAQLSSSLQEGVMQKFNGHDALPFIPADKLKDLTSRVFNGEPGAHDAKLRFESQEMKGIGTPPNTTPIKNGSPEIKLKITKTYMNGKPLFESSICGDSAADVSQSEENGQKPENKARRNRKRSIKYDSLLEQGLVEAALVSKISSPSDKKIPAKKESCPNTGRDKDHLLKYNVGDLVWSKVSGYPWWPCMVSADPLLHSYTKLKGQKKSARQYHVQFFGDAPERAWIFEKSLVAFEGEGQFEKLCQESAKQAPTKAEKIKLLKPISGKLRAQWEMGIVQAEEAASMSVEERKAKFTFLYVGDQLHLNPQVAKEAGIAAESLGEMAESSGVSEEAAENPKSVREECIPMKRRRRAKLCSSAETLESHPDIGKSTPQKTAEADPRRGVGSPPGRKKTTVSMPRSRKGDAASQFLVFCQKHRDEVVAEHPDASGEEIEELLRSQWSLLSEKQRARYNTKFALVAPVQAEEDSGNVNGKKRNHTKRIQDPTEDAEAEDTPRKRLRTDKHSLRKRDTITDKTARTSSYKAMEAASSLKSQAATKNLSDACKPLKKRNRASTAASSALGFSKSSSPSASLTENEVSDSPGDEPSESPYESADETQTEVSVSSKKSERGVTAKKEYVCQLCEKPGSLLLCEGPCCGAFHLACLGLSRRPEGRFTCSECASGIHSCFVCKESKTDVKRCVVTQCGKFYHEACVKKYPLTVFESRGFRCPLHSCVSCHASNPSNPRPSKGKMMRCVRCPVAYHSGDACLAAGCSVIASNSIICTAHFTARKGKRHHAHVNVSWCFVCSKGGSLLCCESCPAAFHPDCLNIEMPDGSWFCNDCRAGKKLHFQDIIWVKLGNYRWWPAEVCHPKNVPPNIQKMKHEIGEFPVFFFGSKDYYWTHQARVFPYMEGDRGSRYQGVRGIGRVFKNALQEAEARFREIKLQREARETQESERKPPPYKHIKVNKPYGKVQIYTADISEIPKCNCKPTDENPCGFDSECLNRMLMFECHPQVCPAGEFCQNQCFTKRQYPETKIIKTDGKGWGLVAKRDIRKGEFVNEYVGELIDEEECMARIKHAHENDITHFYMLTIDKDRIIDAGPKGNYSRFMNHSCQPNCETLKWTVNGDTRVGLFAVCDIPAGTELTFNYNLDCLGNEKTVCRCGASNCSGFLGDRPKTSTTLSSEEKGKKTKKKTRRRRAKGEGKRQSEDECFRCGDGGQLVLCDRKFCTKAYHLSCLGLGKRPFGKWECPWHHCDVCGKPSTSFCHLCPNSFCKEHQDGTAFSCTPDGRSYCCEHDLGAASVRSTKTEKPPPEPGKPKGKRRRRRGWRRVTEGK

[4] = biological target: T3, Carboxy-terminal domain RNA polymerase II polypeptide A small phosphatase 1 (Homo sapiens, UniProt Q9GZU7); assay: inhibitors of CTDSP1, concentration-response testing, biochemical assay, absorbance-based, actives from ultra-high-throughput screening (AID 540297); assay type: functional
T3 sequence (Q9GZU7 whole entry): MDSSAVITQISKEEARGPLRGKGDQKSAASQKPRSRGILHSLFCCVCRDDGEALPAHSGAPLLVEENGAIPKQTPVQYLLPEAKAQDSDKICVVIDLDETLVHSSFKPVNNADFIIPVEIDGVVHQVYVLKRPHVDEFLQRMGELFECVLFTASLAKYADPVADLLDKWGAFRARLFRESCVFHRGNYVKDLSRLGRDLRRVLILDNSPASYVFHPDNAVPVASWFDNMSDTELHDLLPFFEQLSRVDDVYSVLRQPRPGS

[5] = biological target: T4, Caspase-6 (Homo sapiens, UniProt P55212); assay: human caspase-6 inhibitors, dose response, biochemical, VEID-R110 fluorescence, cherry-pick (AID 720632)
T4 sequence (P55212 whole entry): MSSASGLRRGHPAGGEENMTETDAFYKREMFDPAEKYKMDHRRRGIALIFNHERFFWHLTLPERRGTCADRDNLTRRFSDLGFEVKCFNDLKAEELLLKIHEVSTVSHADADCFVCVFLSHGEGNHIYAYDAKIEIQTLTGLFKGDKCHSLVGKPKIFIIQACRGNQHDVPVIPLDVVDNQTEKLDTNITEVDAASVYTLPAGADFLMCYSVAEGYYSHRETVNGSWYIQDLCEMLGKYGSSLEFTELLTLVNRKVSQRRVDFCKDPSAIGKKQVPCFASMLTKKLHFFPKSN

[6] = biological target: T5, Sentrin-specific protease 6 (Homo sapiens, UniProt Q9GZR1); assay type: functional;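 note: Luminescence-based dose-response confirmatory assay of SENP6 inhibition, following up an ultra-high-throughput screen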
T5 sequence (Q9GZR1 whole entry): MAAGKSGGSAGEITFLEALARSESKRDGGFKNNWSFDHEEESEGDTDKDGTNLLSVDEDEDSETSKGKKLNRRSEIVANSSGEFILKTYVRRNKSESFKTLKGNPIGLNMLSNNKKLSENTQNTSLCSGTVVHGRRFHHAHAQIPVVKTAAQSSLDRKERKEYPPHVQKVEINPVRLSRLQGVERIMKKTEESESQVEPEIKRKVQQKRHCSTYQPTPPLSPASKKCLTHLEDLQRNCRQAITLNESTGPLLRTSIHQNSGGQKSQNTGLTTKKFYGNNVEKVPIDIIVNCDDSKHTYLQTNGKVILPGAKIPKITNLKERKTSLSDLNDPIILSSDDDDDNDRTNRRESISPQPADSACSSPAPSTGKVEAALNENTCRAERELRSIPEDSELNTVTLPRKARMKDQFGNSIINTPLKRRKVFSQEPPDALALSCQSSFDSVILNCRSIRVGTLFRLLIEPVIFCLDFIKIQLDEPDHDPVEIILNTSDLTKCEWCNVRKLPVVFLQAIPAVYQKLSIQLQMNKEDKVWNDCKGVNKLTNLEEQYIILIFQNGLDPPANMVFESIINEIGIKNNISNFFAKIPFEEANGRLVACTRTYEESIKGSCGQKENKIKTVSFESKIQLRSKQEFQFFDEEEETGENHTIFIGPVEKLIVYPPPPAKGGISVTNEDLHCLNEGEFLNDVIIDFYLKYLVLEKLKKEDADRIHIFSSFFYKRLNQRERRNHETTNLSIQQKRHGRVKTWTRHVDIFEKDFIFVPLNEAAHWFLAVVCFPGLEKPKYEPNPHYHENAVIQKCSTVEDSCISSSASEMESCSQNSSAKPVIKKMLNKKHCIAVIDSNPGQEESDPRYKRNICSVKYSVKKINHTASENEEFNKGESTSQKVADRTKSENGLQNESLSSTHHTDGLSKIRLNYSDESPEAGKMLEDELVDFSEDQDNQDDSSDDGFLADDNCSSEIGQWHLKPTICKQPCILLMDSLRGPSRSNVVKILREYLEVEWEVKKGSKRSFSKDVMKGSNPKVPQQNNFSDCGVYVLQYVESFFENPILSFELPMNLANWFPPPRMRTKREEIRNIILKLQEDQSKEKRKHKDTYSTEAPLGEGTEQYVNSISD

[7] = biological target: T6, Caspase-3 (Homo sapiens, UniProt P42574); assay type: functional;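 note: Dose-response selectivity test against caspase-3 for candidate inhibitors of sentrin-specific proteases (SENPs)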
T6 sequence (P42574 whole entry): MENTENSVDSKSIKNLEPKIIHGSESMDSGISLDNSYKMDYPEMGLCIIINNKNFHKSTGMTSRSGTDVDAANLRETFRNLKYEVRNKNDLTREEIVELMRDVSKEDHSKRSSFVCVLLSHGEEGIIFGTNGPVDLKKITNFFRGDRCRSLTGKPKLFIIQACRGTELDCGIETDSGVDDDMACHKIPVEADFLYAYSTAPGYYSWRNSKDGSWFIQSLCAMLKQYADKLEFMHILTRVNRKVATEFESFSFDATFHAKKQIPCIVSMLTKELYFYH

[8] = biological target: T7, Sentrin-specific protease 7 (Homo sapiens, UniProt Q9BQF6); assay type: functional;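 note: Luminescence-based dose-response confirmation of ultra-high-throughput screening hits, measuring inhibition of SENP7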
T7 sequence (Q9BQF6 whole entry): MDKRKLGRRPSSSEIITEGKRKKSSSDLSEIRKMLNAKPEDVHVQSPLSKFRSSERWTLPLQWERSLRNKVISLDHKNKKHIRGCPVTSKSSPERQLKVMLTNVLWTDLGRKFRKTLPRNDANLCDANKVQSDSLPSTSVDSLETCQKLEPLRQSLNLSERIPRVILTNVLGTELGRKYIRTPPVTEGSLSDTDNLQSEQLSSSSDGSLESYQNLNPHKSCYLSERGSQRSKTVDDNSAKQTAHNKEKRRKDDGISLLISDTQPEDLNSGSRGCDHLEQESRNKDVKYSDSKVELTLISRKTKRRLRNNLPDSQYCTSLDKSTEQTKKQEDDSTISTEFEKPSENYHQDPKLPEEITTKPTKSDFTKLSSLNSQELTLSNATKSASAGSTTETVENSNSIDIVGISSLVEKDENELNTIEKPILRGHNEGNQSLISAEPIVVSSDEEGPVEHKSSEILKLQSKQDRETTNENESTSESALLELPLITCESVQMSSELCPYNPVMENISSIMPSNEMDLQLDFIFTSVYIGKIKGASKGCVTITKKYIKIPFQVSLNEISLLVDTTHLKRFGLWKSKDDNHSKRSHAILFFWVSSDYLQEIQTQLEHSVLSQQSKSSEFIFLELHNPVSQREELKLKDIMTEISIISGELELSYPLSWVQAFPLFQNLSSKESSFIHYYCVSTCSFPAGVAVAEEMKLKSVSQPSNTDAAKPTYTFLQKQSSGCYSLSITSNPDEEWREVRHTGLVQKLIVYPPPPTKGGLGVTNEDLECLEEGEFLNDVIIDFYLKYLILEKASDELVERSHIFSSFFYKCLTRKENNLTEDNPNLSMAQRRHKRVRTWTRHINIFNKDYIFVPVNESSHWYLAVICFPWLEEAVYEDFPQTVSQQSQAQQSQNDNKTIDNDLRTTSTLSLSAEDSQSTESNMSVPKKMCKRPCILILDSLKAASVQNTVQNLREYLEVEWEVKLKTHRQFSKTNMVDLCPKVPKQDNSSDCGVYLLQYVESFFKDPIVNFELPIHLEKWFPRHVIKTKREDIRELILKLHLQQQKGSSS

[9] = tested on: A-375; assay: MITF: Counter assay: A375 proliferation Measured in Cell-Based System Using Plate Reader - 2084-03_Inhibitor_Dose_DryPowder_Activity. [Related pubchem assays (depositor defined):AID488944]; assay type: functional; conditions: Homo sapiens
[10] = tested on: A-375; assay: A375 melanoma cell viability reduction, dose response, counter-screen for MITF modulator project, cherry-pick samples, set 2 (AID 540335); assay type: functional, cell-based; conditions: Homo sapiens
[11] = biological target: T8, Sentrin-specific protease 8 (Homo sapiens, UniProt Q96LD8); assay type: functional;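 note: luminescence read-out of SENP8 inhibition, dose-response confirmation following an ultra-high-throughput screen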
T8 sequence (Q96LD8 whole entry): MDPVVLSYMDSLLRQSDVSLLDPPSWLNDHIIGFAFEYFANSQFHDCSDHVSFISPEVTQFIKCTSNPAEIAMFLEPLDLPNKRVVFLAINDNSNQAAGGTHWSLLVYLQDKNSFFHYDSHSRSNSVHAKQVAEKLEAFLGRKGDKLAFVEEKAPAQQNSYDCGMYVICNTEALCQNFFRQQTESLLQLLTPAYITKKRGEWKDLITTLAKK

[12] = tested on: NIH3T3; assay: cytotoxicity in NIH-3T3 fibroblasts, dose response, cytotoxicity control for antifungal drug resistance project, cell-based, Alamar Blue, fluconazole, dry powder (AID 488809); assay type: functional; conditions: Mus musculus
[13] = biological target: FAD-linked sulfhydryl oxidase ALR (Homo sapiens, UniProt P55789); assay: inhibitors of human ALR sulfhydryl oxidase, dose response, biochemical, H2O2 detection, luminescence, cherry-pick (AID 493248)
Chain of FAD-linked sulfhydryl oxidase ALR (P55789 whole entry): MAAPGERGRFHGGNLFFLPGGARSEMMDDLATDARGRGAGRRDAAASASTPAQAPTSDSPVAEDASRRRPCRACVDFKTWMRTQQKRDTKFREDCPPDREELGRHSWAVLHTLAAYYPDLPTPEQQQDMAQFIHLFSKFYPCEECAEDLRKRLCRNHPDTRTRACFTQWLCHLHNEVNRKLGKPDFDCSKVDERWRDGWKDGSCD

[14] = biological target: Large T antigen (Simian virus 40, UniProt P03070); assay type: functional, Betapolyomavirus macacae;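 note: Confirmatory-stage PubChem screen for compounds that inhibit SV40 T antigen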
Chain of Large T antigen (P03070 whole entry): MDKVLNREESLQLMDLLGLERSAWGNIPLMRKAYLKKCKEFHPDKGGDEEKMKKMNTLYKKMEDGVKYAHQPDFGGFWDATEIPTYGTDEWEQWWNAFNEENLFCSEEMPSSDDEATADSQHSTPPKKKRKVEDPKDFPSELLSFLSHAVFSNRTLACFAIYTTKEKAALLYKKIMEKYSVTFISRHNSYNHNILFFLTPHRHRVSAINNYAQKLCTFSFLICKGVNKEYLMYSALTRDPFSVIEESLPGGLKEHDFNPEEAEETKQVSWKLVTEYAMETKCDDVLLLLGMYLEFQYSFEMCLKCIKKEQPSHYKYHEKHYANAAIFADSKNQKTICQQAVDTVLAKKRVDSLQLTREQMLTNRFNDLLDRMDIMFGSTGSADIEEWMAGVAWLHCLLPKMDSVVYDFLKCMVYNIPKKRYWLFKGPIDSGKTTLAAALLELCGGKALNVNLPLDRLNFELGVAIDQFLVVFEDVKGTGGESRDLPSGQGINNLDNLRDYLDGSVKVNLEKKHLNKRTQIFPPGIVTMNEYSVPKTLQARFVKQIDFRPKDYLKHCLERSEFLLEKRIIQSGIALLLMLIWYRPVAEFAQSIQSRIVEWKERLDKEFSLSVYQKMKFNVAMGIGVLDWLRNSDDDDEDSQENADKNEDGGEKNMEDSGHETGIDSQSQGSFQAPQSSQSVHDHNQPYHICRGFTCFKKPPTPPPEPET

[15] = tested on: Escherichia coli; assay: microbe, parasite or virus in culture
[16] = tested on: Escherichia coli; assay: microbe, parasite or virus in culture; remark: listed apart in the source
[17] = biological target: Heat shock protein HSP 90-alpha (Homo sapiens, UniProt P07900); assay type: functional, organism-based
[18] = Luminescence Cell-Based Dose Response HTS to Identify Activators of Luciferase Translation or Activity in H4 […] Cells. [Related pubchem assays: 1829 (Project Summary), 1814 (Primary HTS)]; assay type: functional
[19] = Luminescence Cell-Based Dose Confirmation HTS to Identify Activators of 5'UTR Stem-Loop Driven Alpha-Synuclein mRNA Translation in H4 Neuroglioblastoma Cells. [Related pubchem assays: 1829 (Project Summary), 1814 (Primary HTS)]; assay type: functional
[20] = biological target: Dual specificity protein kinase CLK1 (Homo sapiens, UniProt P49759); assay: CLK1 kinase inhibitors, off-target check, dose response, selectivity assay for Dyrk1A inhibitor project, biochemical, cherry-picked samples (AID 588811)
Chain of Dual specificity protein kinase CLK1 (P49759 whole entry): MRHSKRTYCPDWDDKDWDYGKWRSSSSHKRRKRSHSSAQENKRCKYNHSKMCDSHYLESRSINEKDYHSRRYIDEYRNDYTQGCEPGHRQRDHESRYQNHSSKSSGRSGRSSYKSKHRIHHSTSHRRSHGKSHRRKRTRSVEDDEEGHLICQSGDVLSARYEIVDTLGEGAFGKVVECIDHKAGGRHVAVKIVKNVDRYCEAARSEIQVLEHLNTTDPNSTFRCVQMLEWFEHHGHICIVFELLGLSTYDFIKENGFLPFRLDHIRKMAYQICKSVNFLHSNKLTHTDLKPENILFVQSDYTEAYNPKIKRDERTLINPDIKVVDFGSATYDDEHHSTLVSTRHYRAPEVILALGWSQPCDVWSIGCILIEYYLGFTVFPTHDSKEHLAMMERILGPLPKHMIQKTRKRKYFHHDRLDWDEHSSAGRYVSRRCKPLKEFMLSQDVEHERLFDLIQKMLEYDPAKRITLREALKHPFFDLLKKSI

[21] = biological target: Dual specificity tyrosine-phosphorylation-regulated kinase 1A (Rattus norvegicus, UniProt Q63470); assay type: biochemical, Homo sapiens
[22] = tested on: H4; assay: Luminescence Cell-Based Dose Response HTS to Identify Activators of 5'UTR Stem-Loop Driven Prion Protein mRNA Translation in H4 Neuroglioblastoma Cells. [Related pubchem assays: 1829 (Project Summary), 1814 (Primary HTS)]; assay type: functional; conditions: Homo sapiens

T1 sequence (P25098 whole entry): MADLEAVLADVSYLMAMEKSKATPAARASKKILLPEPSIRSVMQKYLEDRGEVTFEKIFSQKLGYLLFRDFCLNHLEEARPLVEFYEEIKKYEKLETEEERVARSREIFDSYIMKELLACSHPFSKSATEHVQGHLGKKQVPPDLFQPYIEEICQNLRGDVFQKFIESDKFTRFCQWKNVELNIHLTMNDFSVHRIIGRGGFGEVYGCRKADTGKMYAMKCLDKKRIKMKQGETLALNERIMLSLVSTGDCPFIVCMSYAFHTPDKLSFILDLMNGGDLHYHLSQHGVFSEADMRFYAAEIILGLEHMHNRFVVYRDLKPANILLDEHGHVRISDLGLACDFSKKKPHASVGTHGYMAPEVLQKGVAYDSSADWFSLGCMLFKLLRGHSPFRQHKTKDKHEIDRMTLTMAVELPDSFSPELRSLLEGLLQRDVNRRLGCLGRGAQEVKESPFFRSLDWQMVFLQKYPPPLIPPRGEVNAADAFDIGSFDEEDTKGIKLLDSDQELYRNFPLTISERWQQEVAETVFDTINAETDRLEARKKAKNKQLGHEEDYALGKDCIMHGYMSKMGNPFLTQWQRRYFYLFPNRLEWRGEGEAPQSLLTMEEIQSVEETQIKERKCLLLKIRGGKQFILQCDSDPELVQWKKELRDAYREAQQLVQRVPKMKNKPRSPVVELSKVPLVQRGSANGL

Compound: O=C(O)Cc1ccc(-n2cccc2)cc1
- EC50 [1]: 3.21 µM (active)
- EC50 [2]: 36.2 µM (inactive)
- AC50 [3]: 11.9 µM (active)
- IC50 [4]: 4.01 µM (active)
- AC50 [5]: 2.7 µM (active)

Compound: CCOc1ccc2nc(NC(=O)Cc3cccs3)sc2c1
- IC50 [6]: 33.2 µM (active)
- IC50 [7]: 22.9 µM (active)
- IC50 [8]: 7.38 µM (active)
- AC50 [9]: > 35 µM (active)
- AC50 [10]: > 35 µM (active)
- IC50 [11]: 16.2 µM (active)

Compound: O=C(Cn1nc(-c2ccccc2)c2ccccc21)NCc1ccc(Cl)cc1
- AC50 [12]: 131 µM (active)

Compound: [O-][n+]1ccccc1S [PYRITHIONE]
- AC50 [13]: 0.432 µM (active)
- IC50 [14]: 30.3 µM (active)
- AC50 [15]: 9.47 µM (active)
- AC50 [16]: 9.06 µM (active)
- AC50 [17]: 1.01 µM (active)

Compound: CC(=O)Nc1ccc(SCc2ncc(-c3ccccc3)o2)cc1
- EC50 [18]: 0.237 µM (active)
- AC50 [13]: 0.44 µM (active)
- EC50 [19]: 34.3 µM (active)
- AC50 [20]: 0.429 µM (active)
- AC50 [21]: 4.26 µM (active)
- EC50 [22]: 11.2 µM (active)
